Entries after “also recorded” stand apart in the source; their conditions may differ.
Tests used:
[1] = Peripheral blood micronucleus assay; type: in vivo, Rat; conditions: for MN frequency: GBM rats, 30 mg/kg oral, 5 days, 1000 cells per animal evaluated
Description: Blood smears were made on clean microscope slides, allowed to air-dry, treated with methanol for fixation, and then stained with Giemsa (10% in 0.1 mM of sodium phosphate buffer, pH 6.8) for 10 min. After washing with PBS, the slides were examined under a light microscope. The frequencies of micronuclei (MN) were calculated by evaluating 1000 cells per animal.

[2] = system: GFAP; assay: In vivo GBM rat model: immunohistochemical examination; conditions: brain tissues, GBM rats, 30 mg/kg oral, 5 days
Excerpt: (§1) For immunohistochemical examinations, primary antibodies (Ki67 Cat no: ab15580 dilution ratio: 1/100; CMPK2 Cat no: PA5-34461, dilution ratio: 1/100, GFAP Cat no: ab6842 dilution ratio: 1/100) were used. 3-3' Diaminobenzidine (DAB) was used as chromogen. Mayer's hematoxylin was used for counterstaining. Sections were examined under a light microscope (Zeiss AXIO, Germany).
(§2) Individual body weights were manually calculated. Group mean body weights; group mean body weight changes and organ weights were also manually calculated without statistical analysis. To determine the density of positive staining from immunohistochemical and immunofluorescence staining images, five randomly selected areas were evaluated using ZEISS Zen Imaging Software. Data were statistically defined as mean and standard deviation (mean ± SD) for the percentage of the area. One-way ANOVA followed by the Tukey test was performed to compare immunoreactive cells and immune-positive stained areas with healthy controls. GraphPad Prism software was used for analysis.

[3] = system: Ki67; assay: as above; conditions: tumor cells, brain tissues, GBM rats, 30 mg/kg oral, 5 days
Excerpt: as §1, §2

[4] = system: GBM xenograft rat model; assay: In vivo GBM rat model: MRI analysis of tumor volumes; conditions: GBM rats, 30 mg/kg oral, 5 days; for tumor size: MRI 14th vs 28th day; for antitumor activities, order: ranking
Description: (§3) An in Vivo study was performed to assess the therapeutic potential of TR-G002, TR-G045, TR-G053, TR-G066, TR-G071 and TR-G091 in the GBM xenograft rat model when administered orally by gavage for five consecutive days. 152 female rats of the Sprague Dawley strain were allocated to the study. Six groups of sixteen females were given dose of 30 mg/kg of the respective target compounds. […] The study design can be seen in Fig. 11 and Table 10.
(§4) Female Sprague Dawley rats (age: 6-8 weeks; weight: 255-310 g; ATADEM, Erzurum, Turkey) were utilized in the study. Rats underwent anaesthesia with 5% isoflurane, maintained at 2% isoflurane (1 L/min oxygen), and were positioned in a stereotactic frame for cell implantation (Stoelting Co., IL). […] A burr hole was drilled 1-mm anterior and 3-mm lateral to the right bregma. A microsyringe (Hamilton 1700 series) containing 5×10^4 U87-MG cells suspended in 5 µL of medium at 37 °C was advanced to a depth of 4 mm into the brain. The cells were injected at a rate of 3 µL/ min. Bone wax was used to fill the burr hole to prevent cell suspension reflux. The incision was sutured, and 1 mL of Meloxicam (5 mg/mL; Metacam, Boehringer Ingelheim Vetmedica, Ingelheim, Germany) was administered via a subcutaneous injection.
(§5) Fourteen days after inoculation, tumor development in rats was visualized and confirmed through magnetic resonance imaging (MRI). Rats confirmed to have developed tumors were then distributed into six different groups for treatment. […] 9 days after the final treatment dose, the rats underwent another MRI scan and blood and brain samples were taken under anaesthesia.
The anaesthetic was administered via an intraperitoneal route on animals fixed in the supine position with parallel hind limbs. MRI was performed using a 3 Tesla clinical scanner (Magnetom Skyra; Siemens Healthineers, Erlangen, Germany). Rats were placed in the prone position. T2-SPACE (sampling perfection with application-optimized contrast using different flip angle Evolution) sequence was obtained to view the brain in coronal and transverse planes. (TR: 6000 ms, TE: 100 ms, voxel size: 0.5 × 0.5 × 1 mm, 34 slices, slice thickness: 2 mm, slice spacing: 0.6 mm). The volume measurements of brain tumors were performed manually. One radiologist calculated the tumour volume - manually measuring tumour length (L), width (W), and height (H) - and then calculated the tumour volume using the formula 0.5236 × L × W × H (Stuppner S et al., 2020).

[5] = system: GBM xenograft rat model; assay: In vivo GBM rat model: survival; conditions: GBM rats, 30 mg/kg oral gavage once daily for 5 days, 14th to 28th day, compared to untreated GBM rats
Description: as §3, §4, §5

[6] = In vivo GBM rat model: plasma chemistry; set-up: CREA. / UA / TCHOL / HDLC: unit not given here; conditions: for ALP / ALT / AST / CREA. / GLU / HDLC / LDH / LDL C / TCHOL / TG / UA: GBM rats, 30 mg/kg oral, 5 days, plasma at necropsy; for levels of AST, ALT and LDH: in comparison to the levels in untreated GBM rats
Description: (§6) The parameters that were analysed can be seen in Table 11.

[7] = In vivo GBM rat model: haematology; conditions: GBM rats, 30 mg/kg oral, 5 days, blood at necropsy
Description: as §6

[8] = system: U138-MG human glioma cell; assay: Cell proliferation analysis (MTT); type: cell-based; conditions: for activity at 10 µM / inhibition at 10 µM: Homo sapiens, 48 h, two days, MTT
[9] = system: U87-MG human glioma cell; assay: Cell proliferation analysis (MTT); type: cell-based; conditions: for activity at 10 µM / inhibition at 10 µM: Homo sapiens, U-87 MG, 48 h, two days, MTT

Row | Structure (SMILES) | MN frequency [1] | GFAP expression in astrocytes around the tumor [2] | expression of Ki67 [3] | antitumor activities, order [4] | ALP [6] [IU/L] | ALT [6] [IU/L] | AST [6] [IU/L] | CREA. [6] | GLU [6] [mg/dL] | HDLC [6] | LDH [6] [IU/L] | LDL C [6] [mmol/L] | TCHOL [6] | TG [6] [mg/dL] | UA [6] | HCT [7] [%] | HGB [7] [g/dL] | MCH [7] [pg] | MCHC [7] [g/dL] | MCV [7] [fL] | also measured
1 | CC(C)CCOc1ccc2c(c1)CCC(=O)N2 [TR-G002, 6-(isopentyloxy)-3,4-dihydroquinolin-2(1H)-one] | 11.62 ± 2.34 | severe | mild | TR-G066> TR-G045> TR-G002>TMZ> TR-G091> TR-G053> TR-G071 | 124.22 | 48.37 | 129.93 | 0.31 | 317 | 37.5 | 535.72 | 4.42 | 54.38 | 115 | 1.71 | 48.53 | 14.88 | 18.43 | 30.71 | 59.99 | tumor size [4]: small increase in tumor size; survival ([5]; 30 mg/kg): significantly improved survival; also recorded: prolonged survival; PLT [7]: 805.75 10^9 /L; RBC [7]: 8.11 10^12/L; WBC [7]: 3.65 10^9/L; activity at 10 µM [8]: 52%; inhibition at 10 µM [8]: 48%; activity at 10 µM [9]: 48%; inhibition at 10 µM [9]: 52%
2 | COc1cc(NC(=O)COc2ccc3c(c2)CCC(=O)N3)cc(OC)c1 [TR-G091, N-(3,5-dimethoxyphenyl)-2-((2-oxo-1,2,3,4-tetrahydroquinolin-6-yl)oxy)acetamide] | 11.65 ± 2.30 | Moderate | moderate | TR-G066> TR-G045> TR-G002>TMZ> TR-G091> TR-G053> TR-G071 | 122.87 | 46.97 | 127.9 | 0.29 | 299 | 36.57 | 546.17 | 5.03 | 54.43 | 121 | 1.7 | 43.95 | 13.80 | 17.90 | 31.40 | 56.95 | survival [5]: prolonged survival; PLT [7]: 744.50 10^9 /L; RBC [7]: 7.73 10^12/L; WBC [7]: 6.56 10^9/L; activity at 10 µM [8]: 86%; inhibition at 10 µM [8]: 14%; activity at 10 µM [9]: 101%; inhibition at 10 µM [9]: -1%
3 | C=Cc1ccc(COc2ccc3c(c2)CCC(=O)N3)cc1 [TR-G053, 6-((4-vinylbenzyl)oxy)-3,4-dihydroquinolin-2(1H)-one] | 9.67 ± 1.21 | mild | severe | TR-G066> TR-G045> TR-G002>TMZ> TR-G091> TR-G053> TR-G071 | 125.67 | 44.57 | 96.87 | 0.34 | 293 | 34.33 | 514 | 5.63 | 56.33 | 117 | 1.64 | 48.77 | 14.67 | 17.83 | 30.07 | 59.33 | MN frequency (comparison) ([1]; treated GBM rats): lowest MN frequency; survival [5]: prolonged survival; levels of AST, ALT and LDH [6]: significantly decreased; PLT [7]: 823.33 10^9 /L; RBC [7]: 8.23 10^12/L; WBC [7]: 3.40 10^9/L; activity at 10 µM [8]: 53%; inhibition at 10 µM [8]: 47%; lowest cell proliferation [9]: 42%; activity at 10 µM [9]: 42%; inhibition at 10 µM [9]: 58%; top 5 target compounds whose treatment resulted in the lowest proliferation ([9]; ranking): top 5
4 | C=CCOC(=O)COc1ccc2c(c1)CCC(=O)N2 [TR-G071, Allyl 2-((2-oxo-1,2,3,4-tetrahydroquinolin-6-yl)oxy)acetate] | 12.43 ± 2.09 | moderate | moderate | TR-G066> TR-G045> TR-G002>TMZ> TR-G091> TR-G053> TR-G071 | 130.5 | 61.25 | 132.5 | 0.34 | 295 | 34.9 | 504.2 | 5.65 | 53.35 | 129 | 1.69 | 48.15 | 14.15 | 17.65 | 31.20 | 58.65 | survival [5]: prolonged survival; PLT [7]: 823.00 10^9 /L; RBC [7]: 8.56 10^12/L; WBC [7]: 3.82 10^9/L; activity at 10 µM [8]: 100%; inhibition at 10 µM [8]: 0%; activity at 10 µM [9]: 97%; inhibition at 10 µM [9]: 3%
5 | O=C(COc1ccc2c(c1)CCC(=O)N2)N/N=C/c1cnc(-c2ccc(Cl)cc2)nc1 [TR-G066, (E)-N'-((2-(4-chlorophenyl)pyrimidin-5-yl)methylene)-2-((2-oxo-1,2,3,4-tetrahydroquinolin-6-yl)oxy)acetohydrazide] | 10.91 ± 1.89 | very severe | very mild | TR-G066> TR-G045> TR-G002>TMZ> TR-G091> TR-G053> TR-G071 | 137.08 | 38.94 | 96.48 | 0.38 | 295 | 34.24 | 476.16 | 4.94 | 58.56 | 122 | 1.7 | 46.30 | 15.00 | 18.51 | 31.11 | 59.60 | tumor size ([4]; 30 mg/kg): decrease in tumor size; also recorded: reduced the tumor size; survival ([5]; 30 mg/kg): significantly improved survival; also recorded: highest survival; also recorded: prolonged survival; levels of AST, ALT and LDH [6]: significantly decreased; PLT [7]: 799.14 10^9 /L; RBC [7]: 8.12 10^12/L; WBC [7]: 4.57 10^9/L; lowest cell proliferation [8]: 39%; inhibition at 10 µM [8]: 62%; inhibition at 10 µM [9]: 33%

— EP4644375A1, “SUBSTITUTED HYDROQUINOLINES FOR THE TREATMENT OF GLIOBLASTOMA MULTIFORME” (Molius Saglik Teknolojileri Anonim Sirketi, priority 2024, dated 2025)
